Assay results reported in patent publication US10165777B2, “Substituted pyrazolylpyrazole derivative and use of same as herbicide” (KYOYU AGRI CO., LTD., priority 2015, dated 2019).

Assays:
Assay type in all cases: in vivo
[1] = tested on: Echinochloa crus-galli; test: Paddy herbicidal activity test; settings: irrigated pot, treated at 3.5 leaf stage of Echinochloa crus-galli, 30 days
Experimental: (§1) 1. Paddy Herbicidal Activity Test Rice paddy soil was filled into a 1/10000 are pot followed by the addition of suitable amounts of water and chemical fertilizer, kneading, seeding with Echinochloa crus-galli, Monochoria vaginalis and Scirpus juncoides and maintaining in an irrigated state at a water depth of 3 cm. Wettable powders of Target Compound (I) shown in Table 1 prepared in compliance with the preparation examples were diluted with a suitable amount of water, rice plants in the 2.0 leaf stage were transplanted during 3.5 leaf stage of Echinochloa crus-galli, and treated by dropping in chemical in the prescribed amount per 10 are using a pipette. After treating for 30 days in a glass greenhouse at an average atmospheric temperature of 30° C., the herbicidal efficacy thereof was investigated. Evaluation of herbicidal efficacy was carried out by comparing growth inhibition rate (%) with an untreated group, while evaluation of phytotoxicity was carried out by comparing growth inhibition rate (%) with the state of a complete eradication group, and were evaluated at 11 levels indicated below.

[2] = tested on: Monochoria vaginalis; test: Paddy herbicidal activity test; settings: irrigated pot, 30 days
Experimental: as §1

[3] = tested on: Scirpus juncoides; test: Paddy herbicidal activity test; settings: irrigated pot, 30 days
Experimental: as §1

[4] = tested on: Oryza sativa; test: Paddy herbicidal activity test, phytotoxicity to transplanted rice; settings: rice transplanted in 2.0 leaf stage, 30 days
Experimental: as §1

[5] = tested on: Amaranthus retroflexus; test: Farming soil treatment test; settings: soil surface spray prior to weed growth, 30 days
Experimental: (§2) Field soil was filled into a 1/6000 are pot followed by seeding with Digitaria ciliaris, Chenopodium album and Amaranthus retroflexus and covering with soil. Wettable powders of compounds of formula (I) shown in Table 1 prepared in compliance with the preparation examples were diluted with water to the prescribed amount of chemical and uniformly sprayed onto each soil surface layer using 100 liters of sprayed water per 10 are prior to weed growth following seeding. After treating for 30 days in a glass greenhouse at an average atmospheric temperature of 30° C., the herbicidal efficacy thereof was investigated. Evaluation of herbicidal efficacy was carried out in the same manner as the above-mentioned Test Example 1.

[6] = tested on: Chenopodium album; test: Farming soil treatment test; settings: soil surface spray prior to weed growth, 30 days
Experimental: as §2

[7] = tested on: Digitaria ciliaris; test: Farming soil treatment test; settings: soil surface spray prior to weed growth, 30 days
Experimental: as §2

[8] = tested on: Amaranthus retroflexus; test: Weed foliar treatment test (Test 3, 1.0 to 2.0 leaf stage); settings: foliar spray at 1.0 to 2.0 leaf stage of Digitaria ciliaris, 3 weeks
Experimental: (§3) Soil was filled into a 1/6000 are pot followed by seeding with Digitaria ciliaris, Chenopodium album and Amaranthus retroflexus, covering with soil, and cultivating in a glass greenhouse at an average atmospheric temperature of 25° C. Wettable powders of Target Compound (I) shown in Table 1 prepared in compliance with the preparation examples were diluted with water to the prescribed amount of chemical and uniformly sprayed onto the weeds using 150 liters of sprayed water per 10 are when Digitaria ciliaris had grown to the 1.0 to 2.0 leaf stage. After treating for 3 weeks in a glass greenhouse at an average atmospheric temperature of 25° C., the herbicidal efficacy thereof was investigated. Evaluation of herbicidal efficacy was carried out in the same manner as the above-mentioned Test Example 1.

[9] = tested on: Chenopodium album; test: as above; settings: foliar spray at 1.0 to 2.0 leaf stage of Digitaria ciliaris, 3 weeks
Experimental: as §3

[10] = tested on: Digitaria ciliaris; test: as above; settings: foliar spray at 1.0 to 2.0 leaf stage of Digitaria ciliaris, 3 weeks
Experimental: as §3

[11] = tested on: Digitaria ciliaris; test: Weed foliar treatment test (Test 4, 4.0 to 5.0 leaf stage); settings: 10 g a.i./10 a; foliar spray at 4.0 to 5.0 leaf stage of Digitaria ciliaris (plant height 10 cm to 15 cm); 20 days
Experimental: (§4) Field soil was filled into a 1/4500 are pot followed by seeding with Digitaria ciliaris and Galinsoga parviflora, covering with soil and cultivating in a glass greenhouse at an average atmospheric temperature of 25° C.
(§5) Wettable powders of Target Compound (I) shown in Table 1 prepared in compliance with the preparation examples were diluted with water to the prescribed amount of chemical and uniformly sprayed onto the weeds using 100 liters of sprayed water per 10 are when Digitaria ciliaris had grown to the 4.0 to 5.0 leaf stage (plant height: 10 cm to 15 cm).
(§6) After treating for 20 days in a glass greenhouse at an average atmospheric temperature of 25° C., the herbicidal efficacy thereof was investigated.
(§7) Evaluation of herbicidal efficacy was carried out in the same manner as the above-mentioned Test Example 1.

[12] = tested on: Galinsoga parviflora; test: as above; settings: 10 g a.i./10 a; foliar spray at 4.0 to 5.0 leaf stage of Digitaria ciliaris; 20 days
Experimental: as §4, §5, §6, §7

SMILES: COC=Nc1c(C#N)cnn1-c1nn2c(c1Cl)CCCC2 [Compound 33]
- herbicidal efficacy, Echinochloa crus-galli ([1]; 1 g a.i./10 a): 9 (90% to less than 100%)
- herbicidal efficacy, Echinochloa crus-galli ([1]; 5 g a.i./10 a): 9 (90% to less than 100%)
- herbicidal efficacy, Monochoria vaginalis ([2]; 1 g a.i./10 a): 9 (90% to less than 100%)
- herbicidal efficacy, Monochoria vaginalis ([2]; 5 g a.i./10 a): 10 (100%)
- herbicidal efficacy, Scirpus juncoides ([3]; 1 g a.i./10 a): 9 (90% to less than 100%)
- herbicidal efficacy, Scirpus juncoides ([3]; 5 g a.i./10 a): 9 (90% to less than 100%)
- phytotoxicity, Oryza sativa ([4]; 1 g a.i./10 a): 0 (0% to less than 10% (growth inhibition rate))
- phytotoxicity, Oryza sativa ([4]; 5 g a.i./10 a): 1 (10% to less than 20%)
- herbicidal efficacy, Amaranthus retroflexus ([5]; 5 g a.i./10 a): 9 (90% to less than 100%)
- herbicidal efficacy, Amaranthus retroflexus ([5]; 10 g a.i./10 a): 9 (90% to less than 100%)
- herbicidal efficacy, Chenopodium album ([6]; 5 g a.i./10 a): 9 (90% to less than 100%)
- herbicidal efficacy, Chenopodium album ([6]; 10 g a.i./10 a): 9 (90% to less than 100%)
- herbicidal efficacy, Digitaria ciliaris ([7]; 5 g a.i./10 a): 9 (90% to less than 100%)
- herbicidal efficacy, Digitaria ciliaris ([7]; 10 g a.i./10 a): 9 (90% to less than 100%)
- herbicidal efficacy, Amaranthus retroflexus ([8]; 5 g a.i./10 a): 9 (90% to less than 100%)
- herbicidal efficacy, Amaranthus retroflexus ([8]; 10 g a.i./10 a): 9 (90% to less than 100%)
- herbicidal efficacy, Chenopodium album ([9]; 5 g a.i./10 a): 10 (100%)
- herbicidal efficacy, Chenopodium album ([9]; 10 g a.i./10 a): 10 (100%)
- herbicidal efficacy, Digitaria ciliaris ([10]; 5 g a.i./10 a): 9 (90% to less than 100%)
- herbicidal efficacy, Digitaria ciliaris ([10]; 10 g a.i./10 a): 9 (90% to less than 100%)
- herbicidal efficacy, Digitaria ciliaris [11]: 9 (90% to less than 100%)
- herbicidal efficacy, Galinsoga parviflora [12]: 10 (100%)
